Measurements from paper PMC9894841, “Characterisation of a cyclic peptide that binds to the RAS binding domain of phosphoinositide 3-kinase p110α” (Scientific Reports, 2023).
Values joined by “and” are separate entries in the source; they are usually repeats but may differ in a detail not shown here. Identical values can stand only once. “Also recorded” adds a separate entry of the source. Residues, ends and D or L forms follow the SMILES beside them.

How the values were obtained:
p110α (p110α/p85α) = p110α (p110α/p85α) (Homo sapiens, UniProt P42336); assay: Microscale thermophoresis (MST) binding to labelled p110α/p85α; settings: for Kd: labelled protein 100 nM, 25 °C; for increase in affinity for p110α over cyclo-CRVLAA: MST
p110α (p110α/p85α), sequence (P42336 whole entry, species assumed): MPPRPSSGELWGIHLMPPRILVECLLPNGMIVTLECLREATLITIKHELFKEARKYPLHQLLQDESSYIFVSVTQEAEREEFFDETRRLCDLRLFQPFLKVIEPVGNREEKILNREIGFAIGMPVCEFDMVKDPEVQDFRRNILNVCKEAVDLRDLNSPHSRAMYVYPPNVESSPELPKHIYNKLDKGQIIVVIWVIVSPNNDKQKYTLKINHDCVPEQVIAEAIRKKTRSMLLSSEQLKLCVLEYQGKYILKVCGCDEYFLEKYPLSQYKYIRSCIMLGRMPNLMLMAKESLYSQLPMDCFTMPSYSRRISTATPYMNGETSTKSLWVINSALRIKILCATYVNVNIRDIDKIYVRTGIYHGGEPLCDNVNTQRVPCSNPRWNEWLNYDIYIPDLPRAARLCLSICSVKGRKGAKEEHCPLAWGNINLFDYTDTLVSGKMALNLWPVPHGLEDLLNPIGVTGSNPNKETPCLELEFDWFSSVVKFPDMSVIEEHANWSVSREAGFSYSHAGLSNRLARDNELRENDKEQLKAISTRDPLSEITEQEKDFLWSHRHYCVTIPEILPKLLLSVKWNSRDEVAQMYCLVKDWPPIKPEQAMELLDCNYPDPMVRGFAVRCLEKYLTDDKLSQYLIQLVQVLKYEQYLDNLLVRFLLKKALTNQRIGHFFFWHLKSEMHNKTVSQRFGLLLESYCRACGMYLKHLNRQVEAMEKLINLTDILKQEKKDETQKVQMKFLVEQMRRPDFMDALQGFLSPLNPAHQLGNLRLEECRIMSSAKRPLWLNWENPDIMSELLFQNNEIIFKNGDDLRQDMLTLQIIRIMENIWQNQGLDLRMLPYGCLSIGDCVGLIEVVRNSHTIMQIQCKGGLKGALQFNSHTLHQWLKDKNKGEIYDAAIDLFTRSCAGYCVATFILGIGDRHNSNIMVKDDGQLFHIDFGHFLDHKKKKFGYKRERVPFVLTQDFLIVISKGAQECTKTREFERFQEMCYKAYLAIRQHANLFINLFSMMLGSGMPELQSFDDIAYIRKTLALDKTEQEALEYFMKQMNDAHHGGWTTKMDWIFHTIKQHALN
p110α (p110α/p85α), sequence (P27986 whole entry partner, species assumed): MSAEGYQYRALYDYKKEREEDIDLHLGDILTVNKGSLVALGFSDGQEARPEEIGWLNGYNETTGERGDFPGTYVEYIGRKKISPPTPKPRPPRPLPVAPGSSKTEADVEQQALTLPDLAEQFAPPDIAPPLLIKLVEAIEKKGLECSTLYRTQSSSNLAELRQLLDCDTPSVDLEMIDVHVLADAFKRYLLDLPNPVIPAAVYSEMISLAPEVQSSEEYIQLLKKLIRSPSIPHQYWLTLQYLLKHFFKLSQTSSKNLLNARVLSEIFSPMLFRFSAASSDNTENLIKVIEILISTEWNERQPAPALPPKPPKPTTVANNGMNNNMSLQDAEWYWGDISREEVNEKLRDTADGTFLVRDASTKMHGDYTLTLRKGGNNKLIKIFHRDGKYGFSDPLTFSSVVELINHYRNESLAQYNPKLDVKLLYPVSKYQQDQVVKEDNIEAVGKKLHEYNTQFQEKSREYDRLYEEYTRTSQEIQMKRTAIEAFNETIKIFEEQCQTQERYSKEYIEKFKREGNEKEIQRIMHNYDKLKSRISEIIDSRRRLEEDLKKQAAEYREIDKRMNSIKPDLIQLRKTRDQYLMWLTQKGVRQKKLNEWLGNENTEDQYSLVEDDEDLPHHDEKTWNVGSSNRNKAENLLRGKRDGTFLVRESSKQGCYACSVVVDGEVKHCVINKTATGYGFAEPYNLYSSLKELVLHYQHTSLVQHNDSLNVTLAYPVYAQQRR

[1] = Solubility of the peptides (in words); type: physicochemical
CRAF-RBD = CRAF-RBD (Homo sapiens, UniProt P04049); assay: MST binding to CRAF-RBD
CRAF-RBD, sequence (P04049 56-131 limits assumed): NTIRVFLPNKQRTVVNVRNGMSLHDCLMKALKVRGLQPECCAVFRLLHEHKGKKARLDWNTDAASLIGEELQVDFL
Procedure: Measurements were performed using a NanoTemper Monolith™ NT.115 instrument (NanoTemper Technologies GmbH, München, Germany). […] Labelling levels (generally in the range 0.3–0.4 dye molecules per protein molecule) were determined using calculated extinction coefficients for the protein and ε647 = 250,000 M^−1 cm^−1 (or ε495 = 70,000 M^−1 cm^−1) for the dye concentration. In a typical experiment 20 ml aliquots of a 100 nM stock solution of labelled protein were mixed with 20 ml aliquots of a serial dilution of binding partner. These solutions were then loaded into standard treated capillaries and MST measurements were performed at 25 °C using 20–40% LED power and 40–60% IR-Laser power. The laser Laser-On time was 30 s and Laser-Off time 5 s. All measurements were performed at least five times.

p110α/KRAS interaction = p110α/KRAS interaction (Homo sapiens, UniProt P42336); assay: MST competition assay of the p110α/KRAS interaction; type: binding; settings: 20 µM peptide
p110α/KRAS interaction, sequence (P42336 whole entry, species assumed): as the sequence (P42336 whole entry, species assumed) above
p110α/KRAS interaction, sequence (P27986 whole entry partner, species assumed): as the sequence (P27986 whole entry partner, species assumed) above
Procedure: We next wanted to test whether the cyclo-CRVLIR peptide is capable of inhibiting the p110α/KRAS interaction.
Measurements were performed using a NanoTemper Monolith™ NT.115 instrument (NanoTemper Technologies GmbH, München, Germany). Protein samples were labelled with the amine reactive dye NT-647 (or NT-495) using the Monolith™ NT.115 Protein Labeling Kit RED-NHS (or Monolith™ NT.115 Protein Labeling Kit BLUE-NHS). Labelling levels (generally in the range 0.3–0.4 dye molecules per protein molecule) were determined using calculated extinction coefficients for the protein and ε647 = 250,000 M^−1 cm^−1 (or ε495 = 70,000 M^−1 cm^−1) for the dye concentration. In a typical experiment […] aliquots of a 100 nM stock solution of labelled protein were mixed with […] aliquots of a serial dilution of binding partner. These solutions were then loaded into standard treated capillaries and MST measurements were performed at 25 °C using 20–40% LED power and 40–60% IR-Laser power. The laser Laser-On time was 30 s and Laser-Off time 5 s. All measurements were performed at least five times.

p110α = p110α (Homo sapiens, UniProt P42336); assay: NMR STD and Water-LOGSY interaction with p110α; type: binding; settings: 1 mM peptide, 8 µM p110α
p110α, sequence (P42336 whole entry, species assumed): as the sequence (P42336 whole entry, species assumed) above
p110α, sequence (P27986 whole entry partner, species assumed): as the sequence (P27986 whole entry partner, species assumed) above
Procedure: Here we chose Nuclear Magnetic Resonance (NMR) as an orthogonal technique to detect the cyclo-CRVLIR binding to p110α. We applied two commonly used NMR-based techniques that can detect protein/ compound interaction: STD (Saturation transfer difference), and Water-LOGSY (water-ligand observed through gradient spectroscopy)[34],[35].
NMR experiments were performed at 20 °C using a Bruker Avance IIIHD spectrometer operating at 700 MHz. STD experiments employed off-resonance saturation (2 s) at − 40 ppm, and on-resonance at − 1 ppm. Waterlogsy experiments used a mixing time of 1.5 s.

H1792 cells = assay: Western blot of phospho-AKT / phospho-ERK in H1792 cells; type: cell-based, human; settings: 4 h; for effect on phospho-AKT (pAKT-Ser473) levels: RPMI 1640 10% FCS, 2, 10 and 50 µM (also 4, 20 and 100 µM)
Procedure: We treated the human lung cancer cell line H1792, growing at steady-state in Roswell Park Memorial Institute (RPMI) 1640 media with 10% Foetal Calf Serum (FCS), with the seven cyclic peptides at three different concentrations (2, 10 and 50 µM) for 4 h. After treatment we measured the effect of the peptides on the phosphorylation levels of AKT (pAKT-Ser473), a key downstream effector of p110α activity. […] In contrast, the phosphorylation levels of ERK (p-ERK), which is a downstream effector of the RAS/RAF/MEK/ERK pathway and is independent of p110α activity, were not affected.
The next day, 1 ml of medium was removed and the cells were treated with different peptide concentrations for 4 h. All peptides were dissolved in 25 mM Tris pH8, 100 mM NaCl and 1 mM TCEP. Cells were then harvested and lysed for SDS-PAGE and western blot analysis. Anti-calnexin antibody was obtained from Abcam. Antibodies directed against phospho-T202/Y204-ERK, ERK, phospho-S473-AKT and AKT were obtained from Cell Signaling. After western blotting, calnexin, AKT and phospho-AKT signals were quantified using ImageJ and statistical tests were done using Prism software.

H1373 cells = assay: Western blot of phospho-AKT / phospho-ERK in H1373 cells; type: cell-based, human; settings: 4 h
Sm-KRAS/Lg-RBDα = molecular target: T1, Sm-KRAS/Lg-RBDα (Homo sapiens, UniProt P42336); assay: NanoBiT Biochemical Assay (NBBA) Sm-KRAS/Lg-RBDα; settings: HEK293 cell lysate, 50 µM
T1 construct: Lg-BiT fused to the RBD of either p110α, p110 δ or p110γ; expressed in transfected cells; host or cells: HEK293 (lysate)
T1 sequence (P42336 187-289 limits assumed): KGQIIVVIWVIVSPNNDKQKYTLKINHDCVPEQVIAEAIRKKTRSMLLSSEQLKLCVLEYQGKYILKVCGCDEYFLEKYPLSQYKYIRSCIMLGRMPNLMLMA
Source text: We next sought to determine whether cyclo-CRVLIR binds specifically to p110α or if it can also interact with other PI3K isoforms. We chose the NBBA (NanoBiT Biochemical Assay), which was previously developed by our laboratory, as a tool to detect if cyclo-CRVLIR could inhibit the interaction of RAS with p110α, p110 δ and p110γ[36]. The NBBA is biochemical adaptation of the NanoBiT cellular assay that is based on the split luciferase NanoLuc system that uses separate Large-BiT (Lg-BiT) and Small-BiT (Sm-BiT) components, each fused to a protein of interest. When the Lg-BiT and Sm-BiT proteins are brought into close proximity, upon the binding of their cognate target proteins, they produce a luminescence signal. […] Cells were harvested at 48 h post-transfection and the cell lysates tested for the interaction of Sm-KRAS with each of the PI3K binding isoforms in the presence or absence of 50 µM cyclo-CRVLIR.
The production of the Sm-KRAS, and the Lg-RBD- of p110α, β, δ, γ constructs and lysate are described in detail in a previous report. The cell lysate was treated with 50 µM cyclo-CRVLIR for 20–30 min before detection by the addition of the Nano-Glo.

What does the source list for CC(C)C[C@@H]1NC(=O)[C@H](C(C)C)NC(=O)[C@H](CCCNC(=N)N)NC(=O)[C@H](CS)NC(=O)[C@H](C)NC(=O)[C@H](C)NC1=O [cyclo-CRVLAA, Cyclo-CRVLAA]?
binding to p110α in words, MST (p110α (p110α/p85α)): weak binding; also recorded: interacted weakly; Kd (p110α (p110α/p85α)): ≥ 360 µM and ~360 µM; solubility in words [1]: most soluble of these

Which results are given for CC(C)C[C@@H]1NC(=O)[C@H](C(C)C)NC(=O)[C@H](CCCNC(=N)N)NC(=O)[C@H](CS)NC(=O)[C@H](CC(=O)O)NC(=O)[C@H](C)NC1=O [cyclo-CRVLAD, Cyclo-CRVLAD]?
increase in affinity for p110α over cyclo-CRVLAA (p110α (p110α/p85α)): 30 fold; Kd (p110α (p110α/p85α)): 11.8 ± 1.75 µM; binding to CRAF-RBD in words, MST (CRAF-RBD): does not interact; also recorded: did not produce a positive signal of interaction

With CC[C@H](C)[C@@H]1NC(=O)[C@H](CC(C)C)NC(=O)[C@H](C(C)C)NC(=O)[C@H](CCCNC(=N)N)NC(=O)[C@H](CS)NC(=O)[C@H](CCCNC(=N)N)NC1=O [cyclo-CRVLIR, Cyclo-CRVLIR] (cyclo(CRVLIR)) as the compound, how does the “increase in affinity for p110α over cyclo-CRVLAA” value (p110α (p110α/p85α)) read?
Its value is roughly 120 fold.

What about the Kd (p110α (p110α/p85α)) of the same compound?
The Kd was 2.9 µM and 3 µM.

And the “p110α/KRAS interaction in the presence of the peptide” value (p110α/KRAS interaction)?
Its value is “blocked; also recorded: did not detect the p110α/KRAS interaction; also recorded: inhibits the p110α/RAS interaction”.

And the “interaction with p110α by STD and Water-LOGSY NMR” value (p110α)?
The value was “clear signal of interaction”.

What about the “effect on phosphorylation levels of ERK (p-ERK)” value (H1792 cells) of the same compound?
Its value is “not affected”.

What about the “effect on phospho-AKT (pAKT-Ser473) levels” value (H1792 cells) of the same compound?
The value was “dose dependent effect; also recorded: reduces the levels of pAKT”.

And the “effect on phospho-AKT (pAKT-S473) levels” value (H1373 cells; H1373 cells, 4, 20 and 100 µM)?
Its value is “inhibition of pAKT; also recorded: reduces the levels of pAKT”.

What about the “effect on phosphorylation levels of ERK (p-ERK)” value (H1373 cells; H1373 cells) of the same compound?
Its value is “not affected”.

And the “inhibition of the Sm-KRAS/Lg-RBDα interaction signal” value (Sm-KRAS/Lg-RBDα)?
Its value is “reduction in the interaction signal; also recorded: able to inhibit”.

What about the solubility in words [1] of the same compound?
Its solubility in words is “more soluble than the parent peptide cyclo-CRVLAA; also recorded: significantly more soluble than our original cyclo-CRVLAA peptide”.

For CC(C)C[C@@H]1NC(=O)[C@H](C(C)C)NC(=O)[C@H](CCCNC(=N)N)NC(=O)[C@H](CS)NC(=O)[C@H](CCCNC(=N)N)NC(=O)[C@H]([C@@H](C)O)NC1=O [cyclo-CRVLTR, Cyclo-CRVLTR] (cyclo(CRVLTR)), which “effect on phospho-AKT (pAKT-Ser473) levels” value (H1792 cells) is on record?
The value was “mild effect”.
